{"source": "patent US7705151B2", "about": "“1,6 Naphthridines useful as inhibitors of SYK kinase” (Boehringer Ingelheim Pharmaceuticals, Inc., priority 2001, dated 2010)", "origin": "cited, not measured here", "key": {"[1]": {"test_system": "rodent mast cells"}, "[2]": {"test_system": "human mast cells"}}, "data": [{"smiles": "Cc1ccc2c(=O)c3ccccc3n(CCCN)c2c1C.O=C(O)C(=O)O", "note": "[ER-27319, 3,4-dimethyl-10-(3-aminopropyl)-9-acridone oxalate]", "values": [{"measurement": "inhibition of anti-IgE mediated degranulation", "setting": "[1]", "value": "inhibit anti-IgE mediated degranulation"}, {"measurement": "inhibition of anti-IgE mediated degranulation", "setting": "[2]", "value": "inhibit anti-IgE mediated degranulation"}]}]}
